Assay results published in patent publication US20080009418A1, “Selective Inhibitors” (Alchemia LTD., priority 2004, published 2008).

How the values were obtained:
[1] = molecular target: T1, Human κ-Opioid (KOP) (Homo sapiens, UniProt P41145); assay: Radioligand binding, human κ-opioid (KOP) membranes, filtration, [3H]-Diprenorphine; settings: compound at 10 μM; for A2 radioligand binding inhibition: human κ-opioid (KOP) membranes
T1 construct: purchased Perkin Elmer Biosignal
Method in brief: (§1)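 Filtration binding on cloned human receptor membranes (1 Unit/well), [125I]-Substance P for NK1 and [3H]-Diprenorphine for KOP, 1 h at room temperature. Filters PEI-presoaked, washed with cold 50 mM Tris-HCl pH 7.4, counted by scintillation; percent inhibition calculated, reference ligand defining non-specific binding.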

[2] = molecular target: T2, Human Melanocortin (MC4) (Homo sapiens, UniProt P32245); assay: Radioligand binding, human melanocortin MC4 membranes, FlashPlate, [125I]-NDP-αMSH; settings: compound at 10 μM; for A4 radioligand binding inhibition: human melanocortin MC4 membranes
T2 construct: purchased Perkin Elmer Biosignal
Method in brief: (§2)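 Cloned human receptor membranes were coated onto FlashPlate wells and incubated with radioligand and compound (added from a 0.5 mM DMSO daughter plate) for 1 hour at room temperature in the dark. Scintillation counting gave percent inhibition, with DMSO defining total and reference ligand defining non-specific binding.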

[3] = molecular target: T3, Human melanocortin (MC5) (Homo sapiens, UniProt P33032); assay: Radioligand binding, human melanocortin MC5 membranes, FlashPlate, [125I]-NDP-αMSH; settings: compound at 10 μM; for A5 radioligand binding inhibition: human melanocortin MC5 membranes
T3 construct: purchased Perkin Elmer Biosignal
Method in brief: as §2

[4] = molecular target: T4, Human μ-opioid (MOP) (Homo sapiens, UniProt P35372); assay: Radioligand binding, human μ-opioid (MOP) membranes, FlashPlate, [3H]-Naloxone; settings: compound at 10 μM; for A7 radioligand binding inhibition: human μ-opioid (MOP) membranes
T4 construct: purchased Perkin Elmer Biosignal
Method in brief: as §2

[5] = molecular target: T5, Human δ-opioid (DOP) (Homo sapiens, UniProt P41143); assay: Radioligand binding, human δ-opioid (DOP) membranes, FlashPlate, [3H]-Bremazocine; settings: compound at 10 μM; for A1 radioligand binding inhibition: human δ-opioid (DOP) membranes
T5 construct: purchased Perkin Elmer Biosignal
Method in brief: as §2

[6] = molecular target: T6, Human neurokinin (NK1) (Homo sapiens, UniProt P25103); assay: Radioligand binding, human neurokinin NK1 membranes, filtration, [125I]-Substance P; settings: compound at 10 μM; for A8 radioligand binding inhibition: human neurokinin NK1 membranes
T6 construct: purchased Perkin Elmer Biosignal
Method in brief: as §1

[7] = molecular target: T7, Human opioid (ORL1) (Homo sapiens, UniProt P41146); assay: Radioligand binding, human opioid ORL1 membranes, FlashPlate, [125I]-Nociceptin; settings: compound at 10 μM; for A10 radioligand binding inhibition: human ORL1 membranes
T7 construct: purchased Perkin Elmer Biosignal
Method in brief: as §2

[8] = molecular target: T8, Human Melanocortin (MC3) (Homo sapiens, UniProt P41968); assay: Radioligand binding, human melanocortin MC3 membranes, FlashPlate, [125I]-NDP-αMSH; settings: compound at 10 μM; for A3 radioligand binding inhibition: human melanocortin MC3 membranes
T8 construct: purchased Perkin Elmer Biosignal
Method in brief: as §2

[9] = molecular target: T9, Human neuropeptide Y (NPY-Y1) (Homo sapiens, UniProt P25929); assay: Radioligand binding, human neuropeptide Y NPY-Y1 membranes, FlashPlate, [125I]-PYY; settings: compound at 10 μM; for A9 radioligand binding inhibition: human NPY-Y1 membranes
T9 construct: purchased Perkin Elmer Biosignal
T9 sequence (P25929 1-384): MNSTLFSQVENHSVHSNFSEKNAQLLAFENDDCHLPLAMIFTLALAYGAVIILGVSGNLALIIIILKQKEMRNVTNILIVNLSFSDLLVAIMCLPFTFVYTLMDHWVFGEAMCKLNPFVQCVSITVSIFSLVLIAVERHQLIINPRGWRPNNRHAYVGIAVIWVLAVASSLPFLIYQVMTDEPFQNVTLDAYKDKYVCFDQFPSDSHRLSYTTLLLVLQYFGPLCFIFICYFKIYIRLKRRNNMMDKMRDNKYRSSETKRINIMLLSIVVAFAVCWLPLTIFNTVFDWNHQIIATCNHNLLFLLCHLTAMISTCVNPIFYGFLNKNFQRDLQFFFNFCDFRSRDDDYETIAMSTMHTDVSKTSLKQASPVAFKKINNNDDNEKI
Method in brief: as §2

[10] = molecular target: T10, Mouse urotensin (mUR2) (Mus musculus, UniProt Q8VIH9); assay: Radioligand binding, mouse urotensin mUR2 membranes, FlashPlate, [125I]-Urotensin II; settings: compound at 10 μM; for A11 radioligand binding inhibition: mouse urotensin mUR2 membranes
T10 construct: purchased Perkin Elmer Biosignal
T10 sequence (Q8VIH9 1-385): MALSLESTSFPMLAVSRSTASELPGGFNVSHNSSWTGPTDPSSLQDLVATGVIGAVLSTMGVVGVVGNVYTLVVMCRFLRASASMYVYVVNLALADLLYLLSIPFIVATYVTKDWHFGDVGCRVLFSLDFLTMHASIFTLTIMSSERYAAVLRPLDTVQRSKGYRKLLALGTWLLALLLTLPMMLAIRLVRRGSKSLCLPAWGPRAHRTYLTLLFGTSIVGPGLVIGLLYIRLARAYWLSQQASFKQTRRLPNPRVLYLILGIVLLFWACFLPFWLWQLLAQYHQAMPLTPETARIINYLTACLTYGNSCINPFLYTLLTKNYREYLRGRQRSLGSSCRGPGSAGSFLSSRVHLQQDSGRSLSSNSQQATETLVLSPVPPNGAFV
Method in brief: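 Cloned mouse urotensin (mUR2) receptor membranes from Perkin Elmer Biosignal were immobilized in FlashPlate microplates using a proprietary coating. Each well got 19.5 μl buffer, then 0.5 μl of DMSO, reference ligand, or compound. Adding 5 μl of [125I]-Urotensin II, diluted to 5× final concentration in binding buffer, started binding. Plates were sealed with TopSeal-A and incubated 1 hour at room temperature in the dark. Wells were counted for 30 seconds each on a TopCount after a 60-second delay, and percentage inhibition was calculated.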

[11] = molecular target: T11, Human melanin-concentrating hormone (MCH1) (Homo sapiens, UniProt Q99705); assay: Radioligand binding, human melanin-concentrating hormone MCH1 membranes, FlashPlate, [125I]-S36057; settings: compound at 10 μM; for A6: inhibition of radioligand binding, human melanin-concentrating hormone (MCH1): [125I]-S36057; for A6 radioligand binding inhibition: human MCH1 membranes
T11 construct: purchased Perkin Elmer Biosignal
Method in brief: as §2

T1 sequence (P41145 whole entry): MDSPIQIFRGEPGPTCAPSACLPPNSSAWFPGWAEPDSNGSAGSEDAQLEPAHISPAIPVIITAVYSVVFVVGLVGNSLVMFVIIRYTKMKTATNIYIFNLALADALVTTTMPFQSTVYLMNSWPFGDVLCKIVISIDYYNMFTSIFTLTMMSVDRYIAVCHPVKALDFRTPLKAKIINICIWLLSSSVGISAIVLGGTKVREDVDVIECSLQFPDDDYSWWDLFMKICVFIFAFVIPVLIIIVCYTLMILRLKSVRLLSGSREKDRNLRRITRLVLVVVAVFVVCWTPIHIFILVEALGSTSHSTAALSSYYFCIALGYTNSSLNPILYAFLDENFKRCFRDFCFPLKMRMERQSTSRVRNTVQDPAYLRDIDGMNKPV
T11 sequence (Q99705 whole entry): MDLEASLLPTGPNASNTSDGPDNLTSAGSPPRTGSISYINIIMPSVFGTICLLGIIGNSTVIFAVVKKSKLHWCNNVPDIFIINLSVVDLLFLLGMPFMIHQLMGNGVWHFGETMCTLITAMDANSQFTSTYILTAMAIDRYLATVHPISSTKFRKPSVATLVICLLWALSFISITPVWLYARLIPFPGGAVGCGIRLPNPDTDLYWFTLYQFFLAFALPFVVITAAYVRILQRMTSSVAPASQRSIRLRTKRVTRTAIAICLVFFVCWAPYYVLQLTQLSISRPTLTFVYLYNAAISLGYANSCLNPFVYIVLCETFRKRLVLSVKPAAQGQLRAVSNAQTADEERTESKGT
T8 sequence (P41968 whole entry): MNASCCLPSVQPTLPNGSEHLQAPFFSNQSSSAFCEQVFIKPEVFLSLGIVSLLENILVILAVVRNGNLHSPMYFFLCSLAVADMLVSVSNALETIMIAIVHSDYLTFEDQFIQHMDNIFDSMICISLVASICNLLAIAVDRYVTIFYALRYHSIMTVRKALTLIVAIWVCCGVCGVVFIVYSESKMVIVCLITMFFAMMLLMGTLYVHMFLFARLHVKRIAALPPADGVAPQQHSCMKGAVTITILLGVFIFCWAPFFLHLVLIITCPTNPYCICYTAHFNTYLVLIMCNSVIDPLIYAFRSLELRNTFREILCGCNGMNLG
T5 sequence (P41143 whole entry): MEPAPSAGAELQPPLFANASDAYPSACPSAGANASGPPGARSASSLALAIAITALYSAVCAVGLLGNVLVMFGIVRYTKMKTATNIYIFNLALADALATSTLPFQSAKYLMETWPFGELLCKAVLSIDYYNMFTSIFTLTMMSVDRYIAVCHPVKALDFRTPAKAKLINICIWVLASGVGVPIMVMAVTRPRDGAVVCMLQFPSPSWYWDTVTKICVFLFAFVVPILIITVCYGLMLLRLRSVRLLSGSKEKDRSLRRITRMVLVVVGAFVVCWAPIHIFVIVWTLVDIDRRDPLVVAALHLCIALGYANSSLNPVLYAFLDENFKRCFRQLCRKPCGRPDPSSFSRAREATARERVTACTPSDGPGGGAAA
T2 sequence (P32245 whole entry): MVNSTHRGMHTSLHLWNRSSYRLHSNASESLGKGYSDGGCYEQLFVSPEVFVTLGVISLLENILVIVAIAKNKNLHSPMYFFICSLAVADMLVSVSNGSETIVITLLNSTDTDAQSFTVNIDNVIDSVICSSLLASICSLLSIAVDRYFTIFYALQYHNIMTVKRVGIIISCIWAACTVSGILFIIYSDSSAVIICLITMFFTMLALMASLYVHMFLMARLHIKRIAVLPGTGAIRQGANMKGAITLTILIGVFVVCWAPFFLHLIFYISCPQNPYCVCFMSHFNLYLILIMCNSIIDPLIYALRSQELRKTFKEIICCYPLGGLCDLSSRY
T3 sequence (P33032 whole entry): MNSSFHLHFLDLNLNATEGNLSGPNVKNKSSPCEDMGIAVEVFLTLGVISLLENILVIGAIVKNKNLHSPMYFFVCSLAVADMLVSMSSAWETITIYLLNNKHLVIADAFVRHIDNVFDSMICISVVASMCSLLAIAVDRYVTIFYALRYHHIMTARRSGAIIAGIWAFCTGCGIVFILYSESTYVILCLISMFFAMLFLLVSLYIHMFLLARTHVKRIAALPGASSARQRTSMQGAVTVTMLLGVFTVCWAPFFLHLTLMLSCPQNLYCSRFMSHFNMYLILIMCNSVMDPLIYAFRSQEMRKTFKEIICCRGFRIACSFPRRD
T7 sequence (P41146 whole entry): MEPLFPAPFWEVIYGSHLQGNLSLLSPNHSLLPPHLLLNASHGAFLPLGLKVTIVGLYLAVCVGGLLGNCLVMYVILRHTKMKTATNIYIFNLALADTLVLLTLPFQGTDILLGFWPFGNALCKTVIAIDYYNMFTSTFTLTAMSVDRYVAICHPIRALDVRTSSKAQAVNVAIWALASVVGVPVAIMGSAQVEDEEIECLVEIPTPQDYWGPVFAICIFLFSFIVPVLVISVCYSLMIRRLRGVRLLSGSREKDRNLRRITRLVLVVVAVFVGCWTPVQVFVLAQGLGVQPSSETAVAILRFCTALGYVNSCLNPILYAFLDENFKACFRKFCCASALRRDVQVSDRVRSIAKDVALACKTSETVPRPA
T4 sequence (P35372 whole entry): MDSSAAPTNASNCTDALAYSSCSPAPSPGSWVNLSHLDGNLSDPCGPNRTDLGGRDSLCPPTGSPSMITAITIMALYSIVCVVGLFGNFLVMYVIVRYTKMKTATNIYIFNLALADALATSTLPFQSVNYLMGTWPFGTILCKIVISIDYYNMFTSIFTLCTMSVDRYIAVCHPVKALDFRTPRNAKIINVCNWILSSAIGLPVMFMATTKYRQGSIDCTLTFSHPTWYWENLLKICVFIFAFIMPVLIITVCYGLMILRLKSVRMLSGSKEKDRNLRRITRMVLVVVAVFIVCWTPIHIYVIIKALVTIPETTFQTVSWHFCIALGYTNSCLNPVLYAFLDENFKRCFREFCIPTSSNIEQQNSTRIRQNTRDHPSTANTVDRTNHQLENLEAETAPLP
T6 sequence (P25103 whole entry): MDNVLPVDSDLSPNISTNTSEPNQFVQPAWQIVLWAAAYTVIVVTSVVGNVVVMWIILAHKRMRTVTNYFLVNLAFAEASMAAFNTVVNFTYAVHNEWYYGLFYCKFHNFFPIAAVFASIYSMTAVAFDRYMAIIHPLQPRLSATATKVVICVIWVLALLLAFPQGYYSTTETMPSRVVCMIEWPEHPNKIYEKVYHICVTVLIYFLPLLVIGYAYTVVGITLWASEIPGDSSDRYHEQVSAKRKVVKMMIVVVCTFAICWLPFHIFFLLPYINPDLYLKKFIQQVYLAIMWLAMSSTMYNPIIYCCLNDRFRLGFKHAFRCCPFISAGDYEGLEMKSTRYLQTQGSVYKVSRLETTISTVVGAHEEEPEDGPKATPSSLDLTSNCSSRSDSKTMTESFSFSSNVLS

Row | Structure (SMILES) | A2: inhibition of radioligand binding, human κ-opioid (KOP) ([1]; [3H]-Diprenorphine) | A5: inhibition of radioligand binding, human melanocortin (MC5) ([3]; [125I]-NDP-αMSH) | A1: inhibition of radioligand binding, human δ-opioid (DOP) ([5]; [3H]-Bremazocine) | A3: inhibition of radioligand binding, human melanocortin (MC3) ([8]; [125I]-NDP-αMSH) | A9: inhibition of radioligand binding, human neuropeptide Y (NPY-Y1) ([9]; [125I]-PYY) | A11: inhibition of radioligand binding, mouse urotensin (mUR2) ([10]; [125I]-Urotensin II) | A6: inhibition of radioligand binding, human melanin-concentrating hormone (MCH1) [11] | A2 radioligand binding inhibition [1] | A4 radioligand binding inhibition [2] | A5 radioligand binding inhibition [3] | A7 radioligand binding inhibition [4] | A1 radioligand binding inhibition [5] | A8 radioligand binding inhibition [6] | A10 radioligand binding inhibition [7] | A3 radioligand binding inhibition [8] | A9 radioligand binding inhibition [9] | A11 radioligand binding inhibition [10] | A6 radioligand binding inhibition [11] | further results
1 | CSC1OC(COCc2ccccc2)C(O)C(OCc2ccc3ccccc3c2)C1NC(=O)CCCN (stereo not shown) [compound 304] | − (“−” indicates less than 50% inhibition at 10 μM) | − (“−” indicates less than 50% inhibition at 10 μM) | − (“−” indicates less than 50% inhibition at 10 μM) | − (“−” indicates less than 50% inhibition at 10 μM) | − (“−” indicates less than 50% inhibition at 10 μM) | − (“−” indicates less than 50% inhibition at 10 μM) | − (“−” indicates less than 50% inhibition at 10 μM) | – | – | – | – | – | – | – | – | – | – | – | A4: inhibition of radioligand binding, human melanocortin (MC4) ([2]; [125I]-NDP-αMSH): − (“−” indicates less than 50% inhibition at 10 μM); A7: inhibition of radioligand binding, human μ-opioid (MOP) ([4]; [3H]-Naloxone): − (“−” indicates less than 50% inhibition at 10 μM); A8: inhibition of radioligand binding, human neurokinin (NK1) ([6]; [125I]-Substance P): + (“+” indicates greater than 50% inhibition at 10 μM); A10: inhibition of radioligand binding, human opioid (ORL1) ([7]; [125I]-Nociceptin): − (“−” indicates less than 50% inhibition at 10 μM)
2 | COC[C@H]1OC(OCc2ccccc2)[C@H](NC(=O)CCNC(=N)N)[C@@H](OCc2ccc(-c3ccccc3)cc2)[C@@H]1O (stereo partly shown) [compound 24] | – | – | – | – | – | – | – | − (“−” indicates less than 50% inhibition at 10 μM) | − (“−” indicates less than 50% inhibition at 10 μM) | + (“+” indicates greater than 50% inhibition at 10 μM) | − (“−” indicates less than 50% inhibition at 10 μM) | − (“−” indicates less than 50% inhibition at 10 μM) | + (“+” indicates greater than 50% inhibition at 10 μM) | − (“−” indicates less than 50% inhibition at 10 μM) | − (“−” indicates less than 50% inhibition at 10 μM) | − (“−” indicates less than 50% inhibition at 10 μM) | − (“−” indicates less than 50% inhibition at 10 μM) | + (“+” indicates greater than 50% inhibition at 10 μM) | –
3 | COCC1OC(OCCc2ccccc2)C(NC(=O)CN)C(OCc2ccc3ccccc3c2)C1O (stereo not shown) [compound 225] | – | – | – | – | – | – | – | – | – | – | – | – | – | – | – | – | – | – | A2: inhibition of radioligand binding ([1]; [3H]-Diprenorphine, filtration): − (“−” indicates less than 50% inhibition at 10 μM); A4: inhibition of radioligand binding ([2]; [125I]-NDP-αMSH, FlashPlate): − (“−” indicates less than 50% inhibition at 10 μM); A5: inhibition of radioligand binding ([3]; [125I]-NDP-αMSH, FlashPlate): − (“−” indicates less than 50% inhibition at 10 μM); A7: inhibition of radioligand binding ([4]; [3H]-Naloxone, FlashPlate): − (“−” indicates less than 50% inhibition at 10 μM); A1: inhibition of radioligand binding ([5]; [3H]-Bremazocine, FlashPlate): − (“−” indicates less than 50% inhibition at 10 μM); A8: inhibition of radioligand binding ([6]; [125I]-Substance P, filtration): + (“+” indicates greater than 50% inhibition at 10 μM); A10: inhibition of radioligand binding ([7]; [125I]-Nociceptin, FlashPlate): − (“−” indicates less than 50% inhibition at 10 μM); A3: inhibition of radioligand binding ([8]; [125I]-NDP-αMSH, FlashPlate): − (“−” indicates less than 50% inhibition at 10 μM); A9: inhibition of radioligand binding ([9]; [125I]-PYY, FlashPlate): − (“−” indicates less than 50% inhibition at 10 μM); A11: inhibition of radioligand binding ([10]; [125I]-Urotensin II, FlashPlate): − (“−” indicates less than 50% inhibition at 10 μM); A6: inhibition of radioligand binding ([11]; [125I]-S36057, FlashPlate): − (“−” indicates less than 50% inhibition at 10 μM)
4 | COC[C@H]1OC(OCc2ccc(Cl)cc2)[C@H](NC(=O)CCNC(=N)N)[C@@H](OCc2ccc(Cl)cc2)[C@@H]1O (stereo partly shown) [compound 38] | – | – | – | – | – | – | – | − (“−” indicates less than 50% inhibition at 10 μM) | − (“−” indicates less than 50% inhibition at 10 μM) | + (“+” indicates greater than 50% inhibition at 10 μM) | − (“−” indicates less than 50% inhibition at 10 μM) | − (“−” indicates less than 50% inhibition at 10 μM) | + (“+” indicates greater than 50% inhibition at 10 μM) | − (“−” indicates less than 50% inhibition at 10 μM) | − (“−” indicates less than 50% inhibition at 10 μM) | − (“−” indicates less than 50% inhibition at 10 μM) | − (“−” indicates less than 50% inhibition at 10 μM) | + (“+” indicates greater than 50% inhibition at 10 μM) | –
5 | NCCC(=O)NC1C(OCc2ccc(Cl)cc2)OC(COCc2ccc(Cl)cc2)C(O)C1OCc1ccccc1 (single isomer, unassigned) [compound 488] | − (“−” indicates less than 50% inhibition at 10 μM) | + (“+” indicates greater than 50% inhibition at 10 μM) | − (“−” indicates less than 50% inhibition at 10 μM) | − (“−” indicates less than 50% inhibition at 10 μM) | − (“−” indicates less than 50% inhibition at 10 μM) | − (“−” indicates less than 50% inhibition at 10 μM) | − (“−” indicates less than 50% inhibition at 10 μM) | – | – | – | – | – | – | – | – | – | – | – | A4: inhibition of radioligand binding, human melanocortin (MC4) ([2]; [125I]-NDP-αMSH, 10 µM): + (“+” indicates greater than 50% inhibition at 10 μM); A7: inhibition of radioligand binding, human μ-opioid (MOP) ([4]; [3H]-Naloxone, 10 µM): − (“−” indicates less than 50% inhibition at 10 μM); A8: inhibition of radioligand binding, human neurokinin (NK1) ([6]; [125I]-Substance P, 10 µM): + (“+” indicates greater than 50% inhibition at 10 μM); A10: inhibition of radioligand binding, human opioid (ORL1) ([7]; [125I]-Nociceptin, 10 µM): + (“+” indicates greater than 50% inhibition at 10 μM)
